For data set [1] the following is noted: in vivo; cited from earlier work.
For the next data set, the system named is M. tuberculosis H37Rv. The data set is classed as in vivo, Mycobacterium tuberculosis. The settings on record: for Mean (SD) log10 M. tuberculosis CFU/lung: 5 days per week.
The nature of data set [2]: Oral (PO) 13 week toxicity study in rats, total exposure. The data set is classed as in vivo. The settings on record: rat, top dose of 13 week study.
A short description of data set [3]: Oral (PO) 13 week toxicity study, comparison with dog IM/SC exposure. The settings on record: 13 week PO study, 18 mg/kg. The data set is classed as in vivo, beagle dog.
For data set [4], the target named is mycobacterial ATP synthase (Mycobacterium tuberculosis, UniProt P9WPS1+P9WPV7). Particulars: cited from earlier work.
The subject of the next data set is M lepra. The settings on record: cited from earlier work.

Structures are written as SMILES. Read-outs that look alike come from different tables or passages of the source.

In the case of `CNCC[C@@](O)(c1cccc2ccccc12)[C@H](c1ccccc1)c1cc2cc(Br)ccc2nc1OC` [Formulation M2], in data set [1], the “mean terminal elimination half-life” value is “approximately 5.5 months”.

`COc1nc2ccc(Br)cc2cc1[C@@H](c1ccccc1)[C@@](O)(CCN(C)C)c1cccc2ccccc12` [bedaquiline]: the “decline in lung CFU compared to untreated control mice” value with M. tuberculosis H37Rv (2.67 mg/kg by gavage 5/7, 12 weeks (total 160 mg/kg)) turned out to be 1.7 log10 CFU/lung. In addition, the “decline in lung CFU counts” value in the data set with M. tuberculosis H37Rv (5.33 mg/kg by gavage 5/7, 12 weeks (total 320 mg/kg)) is on record as “about 3 log10 CFU/lung”. Further, the “additional decrease of lung CFU counts” value in the data set on M. tuberculosis H37Rv (8 mg/kg by gavage 5/7, 8 weeks versus 4 weeks) is 1 log10. Moreover, the “decline in lung CFU relative to untreated mice” value with M. tuberculosis H37Rv (8 mg/kg by gavage 5/7, four weeks) is recorded as “about 1.5 log10 CFU/lung”. The “reduction of M. tuberculosis lung CFU compared to untreated mice” value is listed as “about 1.7 log10 CFU/lung” with M. tuberculosis H37Rv (25 mg/kg by gavage 5/7, after 4 weeks); ~4.0 log10 CFU/lung in the data set with M. tuberculosis H37Rv (25 mg/kg by gavage 5/7, after 8 weeks); ~4.9 log10 CFU/lung in the data set with M. tuberculosis H37Rv (25 mg/kg by gavage 5/7, after 12 weeks). Moreover, the “Mean (SD) log10 M. tuberculosis CFU/lung” value was 3.96 (0.35) log10 CFU/lung in the data set with M. tuberculosis H37Rv (regimen B2.67 (5/7): oral bedaquiline 2.67 mg/kg, Week 4 of treatment); 3.52 (0.38) log10 CFU/lung in the data set with M. tuberculosis H37Rv (regimen B2.67 (5/7): oral bedaquiline 2.67 mg/kg, Week 8 of treatment); 3.16 (0.24) log10 CFU/lung with M. tuberculosis H37Rv (regimen B2.67 (5/7): oral bedaquiline 2.67 mg/kg, Week 12 of treatment); 3.83 (0.25) log10 CFU/lung in the data set on M. tuberculosis H37Rv (regimen B5.33 (5/7): oral bedaquiline 5.33 mg/kg, Week 4 of treatment); 3.15 (0.47) log10 CFU/lung in the data set with M. tuberculosis H37Rv (regimen B5.33 (5/7): oral bedaquiline 5.33 mg/kg, Week 8 of treatment); 1.98 (0.17) log10 CFU/lung with M. tuberculosis H37Rv (regimen B5.33 (5/7): oral bedaquiline 5.33 mg/kg, Week 12 of treatment). Moreover, the “Mean (SD) log10 M. tuberculosis CFU/lung” value with M. tuberculosis H37Rv (regimen B8 (5/7): oral bedaquiline 8 mg/kg, Week 4 of treatment) is reported as 3.30 (0.12) log10 CFU/lung; with M. tuberculosis H37Rv (regimen B8 (5/7): oral bedaquiline 8 mg/kg, Week 8 of treatment), 2.42 (0.26) log10 CFU/lung; in the data set on M. tuberculosis H37Rv (regimen B8 (5/7): oral bedaquiline 8 mg/kg, Week 12 of treatment), 0.69 (0.43) log10 CFU/lung; in the data set on M. tuberculosis H37Rv (regimen B25 (5/7): oral bedaquiline 25 mg/kg, Week 4 of treatment) it was 3.01 (0.45) log10 CFU/lung; in the data set with M. tuberculosis H37Rv (regimen B25 (5/7): oral bedaquiline 25 mg/kg, Week 8 of treatment) it was 0.82 (0.49) log10 CFU/lung; in the data set on M. tuberculosis H37Rv (regimen B25 (5/7): oral bedaquiline 25 mg/kg, Week 12 of treatment), 0.07 (0.09) log10 CFU/lung. For the same compound, in data set [2], the “total exposure after PO administration during 3 months” value was 2 385 383 ng·h/mL. Further, the “total exposure after PO for the same period” value in data set [3] is 13 988 520 ng·h/mL. In addition, in data set [4], the “selectivity index for mycobacterial ATP synthase versus eukaryotic mitochondrial ATP synthase” value is reported as “more than 20000”. The “minimal dose killing 99% of bacilli” value in the data set on M lepra is < 5.0 mg/kg/wk. The “mean terminal elimination half-life” value in data set [1] is listed as “approximately 5.5 months”.

Take `CO[C@H]1/C=C/O[C@@]2(C)Oc3c(C)c(O)c4c(O)c(c(/C=N/N5CCN(C)CC5)c(O)c4c3C2=O)NC(=O)/C(C)=C\C=C\[C@H](C)[C@H](O)[C@@H](C)[C@@H](O)[C@@H](C)[C@H](OC(C)=O)[C@@H]1C` [R, rifampin]: the “reduction of mean M. tuberculosis lung CFU count compared to untreated mice” value in the data set with M. tuberculosis H37Rv (10 mg/kg by gavage 5/7, after 4 weeks of treatment) was “approximately 1 log10 CFU/lung”; in the data set with M. tuberculosis H37Rv (10 mg/kg by gavage 5/7, after 8 weeks of treatment), “about 2 log10 CFU/lung”; with M. tuberculosis H37Rv (10 mg/kg by gavage 5/7, after 12 weeks of treatment) it was ~3 log10 CFU/lung. For the same compound, the “Mean (SD) log10 M. tuberculosis CFU/lung” value in the data set with M. tuberculosis H37Rv (regimen R10 (5/7): rifampin 10 mg/kg, Week 4 of treatment) was 3.39 (0.46) log10 CFU/lung; with M. tuberculosis H37Rv (regimen R10 (5/7): rifampin 10 mg/kg, Week 8 of treatment), 2.74 (0.62) log10 CFU/lung; with M. tuberculosis H37Rv (regimen R10 (5/7): rifampin 10 mg/kg, Week 12 of treatment) it was 1.27 (0.85) log10 CFU/lung.

The values are drawn from patent US11141384B2, “Long-acting formulations” (Janssen Pharmaceutica NV, priority 2017, dated 2021).
